# pKi: −log10 of the molar value.
# Tests used:
# [1] = Mixed-type inhibition of rat liver thioredoxin reductase using DTNB as substrate measured for 50 mins at 5 mins intervals in presence of NADPH by Lineweaver-Burk plot analysis
# [2] = Growth inhibition of human UO31 cells incubated for 48 hrs by sulforhodamine B assay; type: functional; conditions: UO-31, 48 h
# MDA-MB-231 = experiment: Growth inhibition of human MDA-MB-231/ATCC cells incubated for 48 hrs by sulforhodamine B assay; type: functional; conditions: MDA-MB-231, 48 h
# NCI-H23 = experiment: Growth inhibition of human NCI-H23 cells incubated for 48 hrs by sulforhodamine B assay; type: functional; conditions: NCI-H23, 48 h
# K562 = experiment: Growth inhibition of human K562 cells incubated for 48 hrs by sulforhodamine B assay; type: functional; conditions: K562, 48 h
# [3] = Growth inhibition of human DU145 cells incubated for 48 hrs by sulforhodamine B assay; type: functional; conditions: DU-145, 48 h
# [4] = Growth inhibition of human OVCAR8 cells incubated for 48 hrs by sulforhodamine B assay; type: functional; conditions: OVCAR-8, 48 h
# SR = experiment: Growth inhibition of human SR cells incubated for 48 hrs by sulforhodamine B assay; type: functional
# A498 = experiment: Growth inhibition of human A498 cells incubated for 48 hrs by sulforhodamine B assay; type: functional; conditions: A498, 48 h
# [5] = Uncompetitive inhibition of rat liver thioredoxin reductase using DTNB as substrate measured for 50 mins at 5 mins intervals in presence of NADPH by Lineweaver-Burk plot analysis
# MDA-MB-468 = experiment: Growth inhibition of human MDA-MB-468 cells incubated for 48 hrs by sulforhodamine B assay; type: functional; conditions: MDA-MB-468, 48 h
# [6] = Growth inhibition of human HCT116 cells incubated for 48 hrs by sulforhodamine B assay; type: functional; conditions: HCT-116, 48 h
# EKVX [7] = experiment: Growth inhibition of human EKVX cells incubated for 48 hrs by sulforhodamine B assay; type: functional
# U-251 = experiment: Growth inhibition of human U251 cells incubated for 48 hrs by sulforhodamine B assay; type: functional; conditions: U-251, 48 h
# ACHN = experiment: Growth inhibition of human ACHN cells incubated for 48 hrs by sulforhodamine B assay; type: functional
# SN12C = experiment: Growth inhibition of human SN12C cells incubated for 48 hrs by sulforhodamine B assay; type: functional
# [8] = Growth inhibition of human RPMI8226 cells incubated for 48 hrs by sulforhodamine B assay; type: functional; conditions: RPMI-8226, 48 h
# NCI-H322M = experiment: Growth inhibition of human NCI-H322M cells incubated for 48 hrs by sulforhodamine B assay; type: functional
# [9] = Growth inhibition of human HL-60(TB) cells incubated for 48 hrs by sulforhodamine B assay; type: functional; conditions: HL-60, 48 h
# [10] = Growth inhibition of human UACC62 cells incubated for 48 hrs by sulforhodamine B assay; type: functional; conditions: UACC-62, 48 h
# SK-MEL-28 = experiment: Growth inhibition of human SK-MEL-28 cells incubated for 48 hrs by sulforhodamine B assay; type: functional; conditions: SK-MEL-28, 48 h
# [11] = Growth inhibition of human SW620 cells incubated for 48 hrs by sulforhodamine B assay; type: functional; conditions: SW-620, 48 h
# EKVX [12] = experiment: Growth inhibition of human EKVX cells assessed as cell growth at 10 uM incubated for 48 hrs by sulforhodamine B assay relative to control; type: functional; conditions: read-out: Activity
# NCI/ADR-RES = experiment: Growth inhibition of human NCI/ADR-RES cells incubated for 48 hrs by sulforhodamine B assay; type: functional
# T47D = experiment: Growth inhibition of human T47D cells incubated for 48 hrs by sulforhodamine B assay; type: functional
# NCI-H226 = experiment: Growth inhibition of human NCI-H226 cells incubated for 48 hrs by sulforhodamine B assay; type: functional; conditions: NCI-H226, 48 h
# [13] = Selectivity ratio of IC50 for human GM00637 cells to IC50 for human MCF7 cells; type: ADME, cell-based; conditions: GM00637 cells versus MCF7 cells, read-out: Ratio IC50
# [14] = Growth inhibition of human BT549 cells incubated for 48 hrs by sulforhodamine B assay; type: functional; conditions: BT-549, 48 h
# SK-MEL-2 = experiment: Growth inhibition of human SK-MEL-2 cells incubated for 48 hrs by sulforhodamine B assay; type: functional; conditions: SK-MEL-2, 48 h
# [15] = Growth inhibition of human Caki1 cells incubated for 48 hrs by sulforhodamine B assay; type: functional; conditions: CAKI-1, 48 h
# [16] = Growth inhibition of human Hs 578T cells incubated for 48 hrs by sulforhodamine B assay; type: functional
# HT-29 = experiment: Growth inhibition of human HT-29 cells incubated for 48 hrs by sulforhodamine B assay; type: functional; conditions: HT-29, 48 h
# [17] = Growth inhibition of human SNB75 cells incubated for 48 hrs by sulforhodamine B assay; type: functional; conditions: SNB-75, 48 h
# [18] = Growth inhibition of human LOXIMVI cells incubated for 48 hrs by sulforhodamine B assay; type: functional; conditions: LOX IMVI
# [19] = read-out: pLC50 (the source's name) (converted)
smiles,measurement,setting,value
O=c1ccc2nc(-c3ccccc3)nn(-c3ccccc3)c-2c1,pKi,[1],5.41
O=c1ccc2nc(C(F)(F)F)nn(-c3ccccc3)c-2c1,GI50,[2],1.48 µM
same,CC50,[2]; [19],5.62 µM
same,TGI,[2]; read-out: pTGI (converted),2.88 µM
same,GI50,MDA-MB-231,1.91 µM
same,CC50,MDA-MB-231; [19],26.9 µM
same,TGI,MDA-MB-231; read-out: pTGI (converted),5.62 µM
same,GI50,NCI-H23,5.89 µM
same,CC50,NCI-H23; [19],66.1 µM
same,TGI,NCI-H23; read-out: pTGI (converted),22.4 µM
same,GI50,K562,2.09 µM
same,CC50,K562; [19],> 100 µM
same,GI50,[3],1.78 µM
same,CC50,[3]; [19],5.62 µM
same,TGI,[3]; read-out: pTGI (converted),3.16 µM
same,GI50,[4],4.17 µM
same,CC50,[4]; [19],> 100 µM
same,TGI,[4]; read-out: pTGI (converted),33.9 µM
same,GI50,SR,1 µM
same,CC50,SR; [19],> 100 µM
same,TGI,SR; read-out: pTGI,> 100 µM
same,GI50,A498,14.1 µM
same,CC50,A498; [19],52.5 µM
same,TGI,A498; read-out: pTGI (converted),26.9 µM
same,pKi,[5],6.11
same,GI50,MDA-MB-468,1.07 µM
same,CC50,MDA-MB-468; [19],8.32 µM
same,TGI,MDA-MB-468; read-out: pTGI (converted),2.95 µM
same,GI50,[6],1.62 µM
same,CC50,[6]; [19],6.17 µM
same,TGI,[6]; read-out: pTGI (converted),3.16 µM
same,GI50,EKVX [7],26.9 µM
same,CC50,EKVX [7]; [19],53.7 µM
same,TGI,EKVX [7]; read-out: pTGI (converted),26.9 µM
same,GI50,U-251,13.5 µM
same,CC50,U-251; [19],60.3 µM
same,TGI,U-251; read-out: pTGI (converted),28.8 µM
same,GI50,ACHN,1.17 µM
same,CC50,ACHN; [19],5.13 µM
same,TGI,ACHN; read-out: pTGI (converted),2.45 µM
same,GI50,SN12C,7.24 µM
same,CC50,SN12C; [19],> 100 µM
same,TGI,SN12C; read-out: pTGI (converted),57.5 µM
same,GI50,[8],4.79 µM
same,CC50,[8]; [19],> 100 µM
same,TGI,[8]; read-out: pTGI (converted),77.6 µM
same,GI50,NCI-H322M,18.6 µM
same,CC50,NCI-H322M; [19],61.7 µM
same,TGI,NCI-H322M; read-out: pTGI (converted),33.9 µM
same,GI50,[9],1.2 µM
same,CC50,[9]; [19],> 100 µM
same,TGI,[9]; read-out: pTGI (converted),4.27 µM
same,GI50,[10],5.13 µM
same,CC50,[10]; [19],43.7 µM
same,TGI,[10]; read-out: pTGI (converted),17.8 µM
same,GI50,SK-MEL-28,1.7 µM
same,CC50,SK-MEL-28; [19],6.31 µM
same,TGI,SK-MEL-28; read-out: pTGI (converted),3.24 µM
same,GI50,[11],1.74 µM
same,CC50,[11]; [19],7.94 µM
same,TGI,[11]; read-out: pTGI (converted),3.72 µM
same,growth at 10 µM,EKVX [12],95.8%
same,GI50,NCI/ADR-RES,53.7 µM
same,CC50,NCI/ADR-RES; [19],> 100 µM
same,TGI,NCI/ADR-RES; read-out: pTGI (converted),64.6 µM
same,GI50,T47D,1.7 µM
same,CC50,T47D; [19],> 100 µM
same,TGI,T47D; read-out: pTGI (converted),6.61 µM
same,GI50,NCI-H226,13.2 µM
same,CC50,NCI-H226; [19],70.8 µM
same,TGI,NCI-H226; read-out: pTGI (converted),30.2 µM
same,selectivity ratio,[13],3
same,GI50,[14],12.3 µM
same,CC50,[14]; [19],50.1 µM
same,TGI,[14]; read-out: pTGI (converted),24.5 µM
same,GI50,SK-MEL-2,3.63 µM
same,CC50,SK-MEL-2; [19],58.9 µM
same,TGI,SK-MEL-2; read-out: pTGI (converted),15.5 µM
same,GI50,[15],1.48 µM
same,CC50,[15]; [19],5.37 µM
same,TGI,[15]; read-out: pTGI (converted),2.82 µM
same,GI50,[16],12.3 µM
same,CC50,[16]; [19],> 100 µM
same,TGI,[16]; read-out: pTGI (converted),81.3 µM
same,GI50,HT-29,2.63 µM
same,CC50,HT-29; [19],> 100 µM
same,GI50,[17],13.2 µM
same,CC50,[17]; [19],52.5 µM
same,TGI,[17]; read-out: pTGI (converted),26.3 µM
same,GI50,[18],1.58 µM
same,CC50,[18]; [19],6.61 µM
same,TGI,[18]; read-out: pTGI (converted),3.24 µM

# Reference: ChEMBL document CHEMBL3813672, “Discovery of anti-cancer activity for benzo[1,2,4]triazin-7-ones: Very strong correlation to pleurotin and thioredoxin reductase inhibition” (Bioorg Med Chem, 2016)
